The test system of assay [1] is esterase (EC3.1.1.1). The experiment in a line: Microtiter chromogenic detection of esterase, PBS pH 7.4 (Example 1). The conditions noted are these: 1 unit esterase, visual. In kind it is biochemical. As to the method:
(§1) The BCI substrate without MTT is pale blue. PMS and MTT alone are yellow. PMS and BCI is yellow+blue which is green.
Four test samples were prepared.

Assay [2] concerns esterase (EC 3.1.1.1). The experiment in a line: Microtitre chromogenic detection of esterase, de-ionized H2O (Examples 2 and 3). The conditions noted are these: for Substrate preference / Speed of chromogenic reactions relative to other BCI substrates: esterase; for Substrate preference: BCI-substrates tested; for Reaction (colour, time to detection): 1 unit esterase, de-ionized H2O; for Speed of chromogenic reactions relative to other BCI substrates: similar concentration of substrates and enzymes. Format: biochemical. How it is done:
10 μl of esterase (1 unit) was added to substrate samples B, B′, C, C′, D, D′, and E, E′.
Five test samples were prepared.

Assay [3] deals with esterase activity in elastase preparation. Description: Esterase activity and/or contamination in commercial elastase preparation (Example 5). In kind it is biochemical. How it is done:
(§2) Elastase was serially diluted twofold to signal extinction with elastase substrate. The last dilution yielding robust signal was incubated with the competitive inhibitor elastatinal for 10 minutes—with subsequent addition of esterase substrates.

For assay [4], the system named is cholesterol esterase (EC3.1.1.13). Description: Microtiter chromogenic detection of cholesterol esterase (Example 7). The conditions noted are these: for Substrate preference: BCI-substrates tested; for Reaction (colour, time to detection): cholesterol esterase (0.05 U). In kind it is biochemical.
Assay [5] relates to cholesterol oxidase (EC1.1.3.6). The experiment in a line: Microtitre chromogenic detection of cholesterol oxidase (Example 8). The settings on record: Cholesterol Oxidase 25 U/ml. Format: biochemical.
From the text: as §1

The test system of assay [6] is Beta-N-acetylglucosaminidase (EC 3.2.1.30). The experiment in a line: Microtitre chromogenic detection of Beta-N-acetylglucosaminidase (Example 12). The conditions noted are these: Beta-N-acetylglucoaminidase 0.125 units. In kind it is biochemical.
From the text: as §1

Assay [7] concerns the target T1, elastase (EC 3.4.21.36) (Sus scrofa, UniProt P00772).
T1 construct: purchased Sigma lot # 17H8005
The experiment in a line: Elastase with elastase substrate, with or without elastatinal (Example 5). Format: biochemical. As to the method: as §2

The target in assay [8] is chloramphenicol acetyltransferase (EC 2.3.1.28) (Escherichia coli, UniProt P62577). Description: Microtitre chromogenic detection of chloramphenicol acetyltransferase (Example 10). The settings on record: Chloramphenicol acetyl transferase 5U/10 μl. Format: biochemical.
chloramphenicol acetyltransferase (EC 2.3.1.28), sequence (P62577 whole entry, looked up): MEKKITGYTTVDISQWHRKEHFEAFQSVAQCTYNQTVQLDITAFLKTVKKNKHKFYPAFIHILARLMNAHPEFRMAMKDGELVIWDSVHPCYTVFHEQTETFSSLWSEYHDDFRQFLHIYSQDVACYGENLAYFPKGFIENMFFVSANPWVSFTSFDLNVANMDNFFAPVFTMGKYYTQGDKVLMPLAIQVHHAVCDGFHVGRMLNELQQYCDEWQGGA
From the text: In a preferred assay of the invention, the enzyme chloramphenicol acetyl transferase (CAT enzyme) reacts with chloramphenicol and […] in the presence of the indicator dimethylthiazol tetrazolium (MTT) and phenazine methosulfate (PMS). The MTT serves as a hydrogen acceptor in the reaction. The reaction can be written as:
CAT+chloramphenicol+acyl coA→CAT-chloramphenicol-CoA CAT-chloramphenicol-CoA+PMS→CAT+PMS.H2+acyl-chloramphenicol+HS-CoA PMS-H2+MTT→formazan+PMS.
as §1
Chloramphenicol acetyl transferase (5U/10 μl) was added to each substrate combination.

Assay [9] has as its system neuraminidase (EC 3.2.1.18). The experiment in a line: Microtitre chromogenic detection of neuraminidase (Example 11). Format: biochemical. The conditions noted are these: neuraminidase 0.1 units.
Procedure: (§3) These colors result from the interaction of the enzyme and substrate with the transfer of an electron to a tetrazolium salt. The reactive product, formazan, is detected as dark blue, black. The BCI substrate without MTT is pale blue. PMS and MTT alone are yellow. PMS and BCI is yellow+blue which is green.
10 μl of H2O was added to substrate sample A as the substrate control. 10 μl of neuraminidase (0.1 units) was added to substrate samples B, C, D and E.
The test system of assay [10] is B-glucuronidase (EC 3.2.1.31). The settings on record: PBS pH 5.0.
Procedure: as §3
Four test samples were prepared. The samples A, B, C, D contained the following reactants:
10 μl of H2O was added to substrate sample A to serve as a control. 10 μl of β-glucuronidase (10 units) was added to substrate samples B, C, and D.
The test system of assay [11] is beta-glucosidase (EC 3.2.1.21). The conditions noted are these: 0.5 units glucosidase. As to the method:
The experimental results for Experiments 1-12 are described by the color change of the experimental solution. These colors result from the interaction of the enzyme and substrate with the transfer of an electron to a tetrazolium salt. The reactive product, formazan, is detected as dark blue, black. […] The reaction detected required the enzyme, substrate and tetrazolium salt.
Five test samples were prepared. The samples A, B, C, D, E contained the following reactants:
10 μl of H2O was added to substrate sample A to serve as a control. 10 μl of β-glucosidase (0.5 units) was added to substrate samples B, C, D and E.

Setting [12] is: substrate 12.5 mg/ml + H2O, PMS (no MTT).
[13] abbreviates: substrate 12.5 mg/ml + MTT, H2O (no PMS).
Where [14] appears, read: substrate 12.5 mg/ml + MTT, PMS.
[15] abbreviates: substrate 5 mg/ml + H2O, PMS (no MTT).
The mark [16] stands for this setting: substrate 5 mg/ml + MTT, H2O (no PMS).
The mark [17] stands for this setting: substrate 5 mg/ml alone (no MTT, no PMS).
Where [18] appears, read: substrate alone (no MTT, no PMS).

Like-named read-outs stand apart in the source and are kept apart here.

T1 sequence (P00772 27-266): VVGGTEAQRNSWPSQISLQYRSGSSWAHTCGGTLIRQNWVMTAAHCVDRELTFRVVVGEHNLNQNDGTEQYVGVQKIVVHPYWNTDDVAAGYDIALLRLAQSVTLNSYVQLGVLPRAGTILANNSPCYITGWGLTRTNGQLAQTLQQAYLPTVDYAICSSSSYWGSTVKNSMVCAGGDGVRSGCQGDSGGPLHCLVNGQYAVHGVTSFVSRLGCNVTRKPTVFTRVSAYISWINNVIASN

With `CC(=O)Oc1c[nH]c2ccc(Br)c(Cl)c12` [BCI-acetate, 5-Bromo-4-chloro-3-indolyl acetate], the “Reaction (colour, time to detection)” value in assay [1] (setting [12]) was “yellow-blue - slight change”; in assay [1] (setting [13]), “dark blue < 10 seconds)”; in [1] (setting [14]), “dark blue (instantaneous)”; in [2] (setting [15]), “yellow-blue (<30 sec)”; in assay [2] (setting [16]), “dark blue (<10 sec)”; in assay [2] (substrate 5 mg/ml + MTT, PMS), “dark blue (instant detection)”. Moreover, the “Reaction (colour, time to detection)” value in [2] (setting [17]) is reported as “pale blue (>10 minutes)”; in [4] (substrate + H2O, PMS (no MTT)), “yellow-blue (<30 see)”; in assay [4] (substrate + MTT, H2O (no PMS)) it was “dark blue (<10 sec)”; in assay [4] (substrate + MTT, PMS), “dark blue (instant detection)”; in assay [4] (setting [18]) it was “pale blue (>10 minutes)”. The Substrate preference entry in assay [2] and in assay [4] (cholesterol esterase) was “BCI-acetate>BCI-butyrate> BCI-1,3 diacetate” throughout. For the same molecule, in assay [3] (Elastase + H2O, MTT, PMS, BCI-acetate), the “Reaction with elastase preparation, no inhibitor” value is “dark blue (<5 minutes)”.
As to “5-Bromo-4-chloro-3-indolyl 1,3 diacetate [BCI-1,3 diacetate]”, the Substrate preference result in assay [2] and in assay [4] (cholesterol esterase) was “BCI-acetate>BCI-butyrate> BCI-1,3 diacetate” each time. Besides, in assay [2], the “Speed of chromogenic reactions relative to other BCI substrates” value was “much slower than the corresponding BCI-acetate and slower than the BCI-butyrate reactions”. The “Reaction (colour, time to detection)” value is on record as “yellow-blue” in assay [2] (setting [15]); “dark blue (>1 hour)” in assay [2] (setting [16]); “dark blue (>40 minutes)” in assay [2] (substrate 5 mg/ml + MTT, PMS); “pale faint blue” in assay [2] (setting [17]).
Turning to `CC(C)CCC[C@@H](C)[C@H]1CC[C@H]2[C@@H]3CC=C4C[C@@H](O)CC[C@]4(C)[C@H]3CC[C@]12C` [cholesterol], the “Reaction (colour, time to detection)” value is “yellow, no color change” in assay [5] (Cholesterol Std 50 mg/dl + H2O, PMS (no MTT)); “yellow, no color change” in assay [5] (Cholesterol Std 50 mg/dl + MTT, H2O (no PMS)); “dark blue(<1 minutes)” in [5] (Cholesterol Std 50 mg/dl + MTT, PMS); “clear, no color change” in assay [5] (Cholesterol Std 50 mg/dl in H2O (no MTT, no PMS)).
`CC(=O)N[C@H]1[C@H](Oc2c[nH]c3ccc(Br)c(Cl)c23)O[C@H](CO)[C@@H](O)[C@@H]1O` [BCI-acetylglucosaminide]: the “Reaction (colour, time to detection)” value in [6] (setting [12]) was “green”; in [6] (setting [13]), “light blue formazan reaction”; in [6] (setting [14]) it was “dark blue(<2 minutes)”; in [6] (substrate 12.5 mg/ml alone (no MTT, no PMS)), “light blue (>5 minutes)”.
On to `CC(C)C[C@H](NC(=O)N[C@H](C(=O)N[C@@H](CCC(N)=O)C(=O)N[C@@H](C)C=O)[C@@H]1CCNC(=N)N1)C(=O)O` [Elastatinal], for which, in assay [7] (Elastase + Inhibitor, incubated 10 minutes, elastase substrate N-succinyl-ALA-ALA-ALA p nitroanilide), the “Reaction with elastase substrate after incubation with inhibitor” value is on record as “clear (no color >10 min.)”. The “Reaction with MTT, PMS, BCI-acetate after incubation with inhibitor” value in assay [3] (Elastase + Inhibitor, incubated 10 minutes) is on record as “dark blue (<5 minutes)”.
On to `O=C(N[C@H](CO)[C@H](O)c1ccc([N+](=O)[O-])cc1)C(Cl)Cl` [Chloramphenicol], for which the “Reaction (colour, time to detection)” value in [8] (Acetyl CoA + H2O, PMS (no MTT)) is reported as “orange - red (<2 minutes)”; in assay [8] (Acetyl CoA + MTT, H2O (no PMS)), “orange detection (>5 minutes)”; in [8] (Acetyl CoA + MTT, PMS), “yellow”.
For `CCCC(=O)Oc1c[nH]c2ccc(Br)c(Cl)c12` [BCI-butyrate, 5-Bromo-4-chloro-3-indolyl-butyrate], the Substrate preference entry in assay [2] and in assay [4] (cholesterol esterase) was “BCI-acetate>BCI-butyrate> BCI-1,3 diacetate” each time. In addition, the “Speed of chromogenic reactions relative to other BCI substrates” value in assay [2] is on record as “much slower than the corresponding BCI-acetate reactions”; in [4] (cholesterol esterase, similar concentration of substrates and enzymes), “much slower than the corresponding BCI-acetate reactions”. Besides, the “Reaction (colour, time to detection)” value in assay [2] (setting [15]) is listed as “yellow-blue (<30 minutes)”; in assay [2] (setting [16]), “dark blue (<30 minutes)”; in [2] (substrate 5 mg/ml + MTT, PMS) it was “dark blue (<20 minutes)”; in assay [2] (setting [17]), “pale blue (>1 hour)”; in [4] (substrate + H2O, PMS (no MTT)), “yellow-blue (<30 minutes)”; in assay [4] (substrate + MTT, H2O (no PMS)), “dark blue (<30 minutes)”. In addition, the “Reaction (colour, time to detection)” value in assay [4] (substrate + MTT, PMS) is “dark blue (<20 minutes)”; in assay [4] (setting [18]), “pale blue (>1 hour)”.
Take `C[C@H](NC(=O)CCC(=O)O)C(=O)N[C@@H](C)C(=O)N[C@@H](C)C(=O)Nc1ccc([N+](=O)[O-])cc1` [Elastase substrate, N-succinyl-ALA-ALA-ALA p nitroanilide]: the “Reaction with elastase, no inhibitor” value in assay [7] (Elastase + H2O, elastase substrate) is “yellow”.
With `CC(=O)N[C@H]1[C@H]([C@H](O)[C@H](O)CO)O[C@@](Oc2c[nH]c3ccc(Br)c(Cl)c23)(C(=O)O)C[C@@H]1O` [BCI-acetylneuraminic acid, 5-bromo-4-chloro-3-indolyl acetyl neuraminic acid], the “Reaction (colour, time to detection)” value in assay [9] (substrate + H2O, PMS (no MTT)) is reported as “green”; in [9] (substrate + MTT, H2O (no PMS)), “light blue formazan reaction”; in [9] (substrate + MTT, PMS), “dark blue (>5 minutes)”; in assay [9] (substrate in H2O (no MTT, no PMS)), “pale blue (<2 minutes)”.
Regarding “5-Bromo-4-chloro-3-indolyl-B-D-glucuronide [BCI glucuronide]”, the “Reaction (colour, time to detection)” value is recorded as “dark blue (<5 minutes)” in [10] (substrate 10 mg/ml + MTT, H2O (no PMS), 10 units glucuronidase); “pale blue (after 5 minutes)” in assay [10] (substrate + H2O (no MTT, no PMS), glucuronidase); “yellow-blue - slight change” in assay [10] (substrate + H2O, PMS (no MTT), 10 units glucuronidase); “dark blue (<5 minutes)” in [10] (substrate + MTT, PMS, 10 units glucuronidase).
With “5-Bromo-4-chloro-3-indolyl-B-D-glucoside [BCI-glucoside]”, the “Reaction (colour, time to detection)” value was “yellow-blue - slight change” in assay [11] (setting [15]); “dark blue (<5 minutes)” in assay [11] (setting [16]); “dark blue (<5 minutes)” in [11] (substrate 5 mg/ml + MTT, PMS); “pale blue (>10 minutes)” in assay [11] (setting [17]).

The values are drawn from patent publication US20010014462A1, “Direct cholesterol esterase assay” (priority 1997, published 2001).
